According to the supplement of paper PMC8960247:
± gives the standard error.

What was measured:
[1] = system: 621-103 (TSC2-rescued); test: relative viability vs DMSO; higher = less cytotoxic; conditions: serum: 10% FBS, 72 h
[2] = system: 621-102 (TSC2-deficient); test: as above; conditions: serum: 10% FBS, 72 h
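Also: immortalized renal angiomyolipoma cells stably carrying empty vector or TSC2, dosed in 384-well plates in DMEM, viability normalized to vehicle-treated wells within each plate.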

| SMILES | relative viability ([1]; 0.0001 µM) | relative viability ([1]; 0.001 µM) | relative viability ([1]; 0.01 µM) | relative viability ([1]; 0.1 µM) | relative viability ([1]; 1 µM) | relative viability ([1]; 10 µM) | relative viability ([2]; 0.0001 µM) | relative viability ([2]; 0.001 µM) | relative viability ([2]; 0.01 µM) | relative viability ([2]; 0.1 µM) | relative viability ([2]; 1 µM) | relative viability ([2]; 10 µM) |
| --- | --- | --- | --- | --- | --- | --- | --- | --- | --- | --- | --- | --- |
| Cc1c(NC(=O)OC[C@@H]2COCCN2)cn2ncnc(Nc3ccc4c(cnn4Cc4cccc(F)c4)c3)c12 | 100.9 ± 0.54% | 100 ± 1.2% | 102 ± 1.5% | 101.3 ± 0.88% | 101 ± 1.9% | 82.5 ± 5.9% | 101 ± 2.7% | 104 ± 2% | 97.6 ± 2% | 104.2 ± 0.79% | 96.3 ± 2.8% | 81.33 ± 0.65% |
| Cc1ccc(C(=O)N(CCCN)[C@@H](c2oc3cc(Cl)ccc3c(=O)c2Cc2ccccc2)C(C)C)cc1 | 40.45 ± 0.2% | 46.1 ± 0.55% | 59.1 ± 2% | 50.6 ± 1.8% | 47.3 ± 5.6% | 1.36 ± 0.14% | 61.7 ± 2.2% | 67.7 ± 4.4% | 75.95 ± 0.11% | 69.9 ± 1.3% | 80.2 ± 2.9% | 1.36 ± 0.19% |
| Cc1ccc(NC(=O)c2cccc(N(C)C)c2)cc1NC(=O)c1ccc(O)cc1 | 104.9 ± 0.89% | 102 ± 4% | 101 ± 3.8% | 101 ± 4.5% | 94.6 ± 5% | 98.9 ± 1.4% | 90.2 ± 2% | 102 ± 2.6% | 100.2 ± 0.28% | 109 ± 5% | 109 ± 5.4% | 92.1 ± 6% |
| Cc1cnc(Nc2ccc(N3CCN(C)CC3)cc2)nc1Nc1cccc(S(=O)(=O)NC(C)(C)C)c1 | 102 ± 2.6% | 98.71 ± 0.22% | 95.5 ± 4.1% | 97.4 ± 1.1% | 51 ± 1.3% | 1.33 ± 0.2% | 116.1 ± 0.23% | 120 ± 3.8% | 109 ± 6.5% | 107 ± 2.4% | 80.4 ± 2.8% | 3.65 ± 0.42% |
| Cn1c(N2CCCCS2(=O)=O)nc(C(=O)NCc2ccc(F)cc2)c(O)c1=O | 99.8 ± 2.4% | 105.9 ± 0.6% | 101 ± 2.4% | 101 ± 2.1% | 100.8 ± 0.82% | 100 ± 1.4% | 104 ± 2.9% | 106 ± 1.5% | 106 ± 1.5% | 102 ± 1.9% | 108.8 ± 0.34% | 99.97 ± 0.61% |
| N#Cc1c(O)c2c(-c3ccc(-c4ccccc4O)cc3)csc2[nH]c1=O | 99.2 ± 3.3% | 95.56 ± 0.75% | 96.1 ± 3.5% | 97.25 ± 0.34% | 100.3 ± 0.89% | 105 ± 3.5% | 87.4 ± 2.6% | 101.1 ± 0.29% | 99.8 ± 4.8% | 93.17 ± 0.38% | 98.55 ± 0.91% | 87.2 ± 3.2% |
| NC(=O)[C@@H](CCC(F)(F)F)N(Cc1ccc(-c2ncon2)cc1F)S(=O)(=O)c1ccc(Cl)cc1 | 103 ± 1.2% | 102 ± 1.3% | 101.6 ± 0.3% | 103.4 ± 0.95% | 103.76 ± 0.01% | 102 ± 1.9% | 109.7 ± 0.27% | 108 ± 2.7% | 124 ± 2.7% | 116.1 ± 0.31% | 117 ± 2.9% | 108 ± 2.9% |
| NC(=O)c1cccc2[nH]c(-c3ccc(C4CCCN4)cc3F)nc12 (stereo not given) | 96.5 ± 3.4% | 98.4 ± 1.8% | 102 ± 2.6% | 98.4 ± 4.6% | 103 ± 2.3% | 94 ± 1.4% | 98.7 ± 1.1% | 103.2 ± 0.25% | 104 ± 4.6% | 99.4 ± 3.5% | 102 ± 4.6% | 93.99 ± 0.45% |
| NC1(Cc2ccc(Cl)cc2)CCN(c2ncnc3[nH]ccc23)CC1 | 114 ± 2.5% | 102 ± 1.4% | 111 ± 2.4% | 102 ± 5.5% | 96.3 ± 4.4% | 72 ± 0.83% | 65.2 ± 2.3% | 81 ± 1.2% | 81.4 ± 1.9% | 92.8 ± 5.6% | 77.3 ± 3.3% | 60.6 ± 1% |
| Nc1nccc(Oc2ccc(NC(=O)c3c[nH]cc(-c4ccc(F)cc4)c3=O)cc2F)c1Cl | 90.9 ± 6.6% | 94.6 ± 4.2% | 102 ± 1.6% | 104 ± 2% | 98.9 ± 1.2% | 98.15 ± 0.84% | 94 ± 10% | 118 ± 2.6% | 111 ± 3.1% | 103 ± 2.8% | 102 ± 2.2% | 94.5 ± 1.3% |
